Laboratory results published in patent US11679100B2, “Methods of enhancing immunity” (The Regents of the University of California, priority 2018, dated 2023).

System: LLC lung tumor
Experiment: LA1 treatment of subcutaneous LLC tumors
Format: in vivo, mice
Procedure: LA1 treatment of LLC: 7.5×10^5 LLC cells were injected subcutaneously (s.c.) into the right flank of syngeneic 6- to 8-week old WT or CD11b^−/− mice. At 5-8 days post tumor inoculation, tumor-bearing mice were divided into the following treatment groups: Vehicle (6% DMSO, 1% Tween-20 in saline), LA1 (6 mg/kg dissolved in vehicle). Vehicle and LA1 was administered by intraperitoneal injection (i.p.) daily. Tumor burden was evaluated 2-3 times a week by caliper measurements and tumor volumes were calculated using the equation (l^2×w)/2. Tumors were harvested at 3 weeks post-tumor inoculation, formalin fixed, cryopreserved in OCT, or collagenase-digested for flow cytometric analysis.
Immunohistochemistry—Tumor samples were collected and cryopreserved in O.C.T. Sections (5 μm) were fixed in 100% cold acetone, blocked with 8% normal goat serum for 2 hours, and incubated with primary antibodies at […] for 2 hours at room temperature. Sections were washed 3 times with PBS and incubated with fluorescent secondary antibodies. Primary antibodies where: F4/80 (BM8, eBioscience), CD4 (H129.19, BD Bioscience), CD8 (53-6.7, BD Bioscience), CD31 (MEC13.1, BD Bioscience), desmin (RB0914-P1, LabVision, Thermo Scientific), and anti-smooth muscle actin (SMA) (1A4, Sigma-Aldrich). Slides were counterstained with 4′,6-diamidino-2-phenylindole (DAPI) to identify nuclei. Immunofluorescence images were collected on a Nikon microscope (Eclipse TE2000-U) and analyzed using Metamorph image capture and analysis software (Version 6.3r5, Molecular Devices). Pixels/field or cell number/field were quantified in five 100× fields from 5 biological replicates. For LA1 studies, immunohistochemical staining was quantified by counting marker positive cells in 3 different areas analyzed at 40× using a light microscope for each tumor tissue (n=4−6). Tissues that were stained with fluorochrome conjugated secondary antibodies were counter stained with DAPI and analyzed using the Zeiss 700 LSM confocal microscope and Zen software (Carl Zeiss Group, Hartford, Conn.).
Alternatively, immunostaining was performed on formalin fixed, paraffin-embedded tumor tissues. Deparaffinized tissue sections (5 μm) were either stained with hemotoxylin-eosin or were subjected to antigen retrieval by steam heating in an acidic pH solution (Citrate-based, Vector Laboratories) prior to immune staining for α-SMA (clone 1A4, Fisher Scientific), MMP9 (polyclonal rabbit, Abcam), S100A8 (goat polyclonal (M-19), Santa Cruz), CD31 (clone RM0032-1D12, Abcam), or ARG1 (sc-18351, Santa Cruz) at 4° C. overnight. Sections were washed and incubated with the appropriate fluorochrome conjugated secondary antibody (Invitrogen Life Technologies, Grand Island, N.Y.) or biotinylated secondary antibodies diluted in blocking buffer for 1 hr. at RT. For sections that were stained with biotinylated secondary antibodies, signal development was accomplished by using the DAB Substrate Kit (Vector Laboratories).
Flow Cytometry Staining and Analysis—Single cell suspensions (10^6 cells in 100 μL total volume) were incubated with Aqua Live Dead fixable stain (Life Technologies, Carlsbad, Calif.), FcR-blocking reagent (BD Biosciences, San Jose, Calif.) and fluorescently labeled antibodies and incubated at 4° C. for 1 h. Primary antibodies were: BV605-F4/80 (clone BM8, Biolegend #123133, 1.25 μg/ml), Alexa 700-CD45 (clone 30-F11, eBioscience #56-0451, ×0.6 μg/ml), CD11b-APC (clone M1/70, eBioscience #17-0012, 0.3 μg/ml), FITC-Gr1 (clone RB6-8C5, eBioscience #11-5931, 3 μg/ml), eF780-CD3 (clone 145-2C11, eBioscience #47-0031, 5 μg/ml), PE-Dazzle-CD4 (clone RM4-5, Biolegend #100565, 0.4 μg/ml), and BV605-CD8 (clone 53-6.7, Biolegend #100743, 1.75 μg/ml). Multicolor FACS Analysis was performed on a BD Canto RUO 11 Color Analyzer. All data analysis was performed using the flow cytometry analysis program FloJo (Treestar).

O=C(O)c1ccc(-c2ccc(/C=C3\SC(=S)N(Cc4ccccc4)C3=O)o2)cc1 [LA1, leukadherin 1]
LLC lung tumor growth in Itgam-/- mice (LA1 6 mg/kg i.p. daily, Itgam-/- mice): not in Itgam−/− mice | LLC lung tumor growth in WT mice (LA1 6 mg/kg i.p. daily, WT mice): inhibited murine LLC lung tumor growth in WT | CD8+ T cells in tumors (LLC tumors): increased the presence of CD8+ T cells | MHCII+ macrophages in tumors (LLC tumors): increased the presence of MHCII+ macrophages | expression of S100A8 and MMP9 in CD11b+ cells (LLC tumors): inhibited expression of S100A8 and MMP9 in CD11b+ cells in LLC tumors | numbers of SMA+ blood vessels in tumors (tumors of FIGS. 5G, 5I and 5J (CL66, MDA-MB-231, LLC)): decreasing the numbers of SMA+blood vessels
